Results as given in ChEMBL document CHEMBL3822442, “Synthesis and Pharmacological Characterization of Novel Glucagon-like Peptide-2 (GLP-2) Analogues with Low Systemic Clearance” (J Med Chem, 2016).
Calls of active or inactive are those of the source. No cut-off for these calls is given here.

How the values were obtained:
[1] = target: Glucagon receptor (Homo sapiens) (UniProt P47871); test: Agonist activity at human GCGR expressed in HEK293 cells after 5 hrs by luciferase reporter gene assay; format: cell-based
HEK293 = test: Selectivity ratio of EC50 for human GLP1R expressed in HEK293 cells to EC50 for human GLP2R expressed in HEK293; format: cell-based
[2] = Systemic clearance in Sprague-Dawley rat at 0.2 mg/kg, iv through cassette dosing measured up to 300 mins by LC/MS/MS analysis; format: ADME, organism-based; settings: in vivo
[3] = target: T1, Glucagon-like peptide 2 receptor (Homo sapiens, UniProt O95838); test: Agonist activity at human GLP2R expressed in HEK293 cells after 5 hrs by luciferase reporter gene assay; format: cell-based
T1 sequence (O95838 whole entry): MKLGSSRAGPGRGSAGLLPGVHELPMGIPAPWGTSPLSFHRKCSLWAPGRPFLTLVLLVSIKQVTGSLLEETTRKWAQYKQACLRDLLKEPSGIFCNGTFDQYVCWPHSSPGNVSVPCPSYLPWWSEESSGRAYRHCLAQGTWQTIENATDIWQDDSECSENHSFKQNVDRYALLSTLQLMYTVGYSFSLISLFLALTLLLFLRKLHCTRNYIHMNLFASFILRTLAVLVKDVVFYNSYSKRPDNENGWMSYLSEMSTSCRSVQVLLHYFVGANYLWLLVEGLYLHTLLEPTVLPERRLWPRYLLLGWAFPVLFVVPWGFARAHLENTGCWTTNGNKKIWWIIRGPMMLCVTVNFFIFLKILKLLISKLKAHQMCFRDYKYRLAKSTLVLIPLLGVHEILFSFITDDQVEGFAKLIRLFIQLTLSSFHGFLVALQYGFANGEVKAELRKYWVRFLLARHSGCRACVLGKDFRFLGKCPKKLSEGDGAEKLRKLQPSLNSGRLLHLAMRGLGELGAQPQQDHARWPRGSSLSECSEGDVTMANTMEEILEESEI

[4] = target: Glucagon-like peptide 1 receptor (Homo sapiens, UniProt P43220); test: Agonist activity at human GLP1R expressed in HEK293 cells after 5 hrs by luciferase reporter gene assay; format: cell-based
Sequence of Glucagon-like peptide 1 receptor (P43220 whole entry): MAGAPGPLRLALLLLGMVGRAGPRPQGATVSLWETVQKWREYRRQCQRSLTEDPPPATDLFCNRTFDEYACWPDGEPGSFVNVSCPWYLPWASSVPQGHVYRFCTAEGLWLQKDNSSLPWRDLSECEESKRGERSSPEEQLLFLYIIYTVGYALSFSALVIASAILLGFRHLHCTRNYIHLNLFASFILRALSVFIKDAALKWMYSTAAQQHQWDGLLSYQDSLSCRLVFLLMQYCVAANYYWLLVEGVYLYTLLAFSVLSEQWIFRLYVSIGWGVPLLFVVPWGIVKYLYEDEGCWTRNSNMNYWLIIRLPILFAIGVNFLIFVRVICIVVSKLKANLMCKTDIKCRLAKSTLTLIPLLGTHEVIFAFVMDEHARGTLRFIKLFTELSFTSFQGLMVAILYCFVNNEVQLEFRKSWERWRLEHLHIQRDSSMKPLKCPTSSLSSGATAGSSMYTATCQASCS

Sequence of Glucagon receptor (Homo sapiens) (P47871 whole entry): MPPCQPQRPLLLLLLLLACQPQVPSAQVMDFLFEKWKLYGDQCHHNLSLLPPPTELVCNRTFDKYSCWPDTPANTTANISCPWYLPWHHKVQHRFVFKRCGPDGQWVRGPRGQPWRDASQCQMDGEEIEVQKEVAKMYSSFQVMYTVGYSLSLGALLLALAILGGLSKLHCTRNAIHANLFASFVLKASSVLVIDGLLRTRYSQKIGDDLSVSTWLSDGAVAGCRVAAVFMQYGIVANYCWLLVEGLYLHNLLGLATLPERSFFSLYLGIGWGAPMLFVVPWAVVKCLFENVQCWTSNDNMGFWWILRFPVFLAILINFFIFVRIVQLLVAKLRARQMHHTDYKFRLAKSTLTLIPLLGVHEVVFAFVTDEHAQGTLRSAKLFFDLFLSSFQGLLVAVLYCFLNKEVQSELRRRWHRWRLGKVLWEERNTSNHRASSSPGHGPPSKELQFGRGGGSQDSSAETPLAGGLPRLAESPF

| SMILES | Ratio EC50 (HEK293) | other results |
| --- | --- | --- |
| CCCCC(NC(=O)[C@H](CCC(=O)O)NC(=O)[C@H](CC(=O)O)NC(=O)[C@H](CO)NC(=O)[C@H](Cc1ccccc1)NC(=O)[C@H](CO)NC(=O)CNC(=O)[C@H](CC(=O)O)NC(=O)CNC(=O)[C@@H](N)Cc1cnc[nH]1)C(=O)N[C@H](CC(C)C)C(=O)N[C@H](C(=O)N[C@H](C(=O)N[C@@H](CC(C)C)C(=O)N[C@@H](CC(=O)O)C(=O)N[C@@H](CC(N)=O)C(=O)N[C@@H](CC(C)C)C(=O)N[C@@H](C)C(=O)N[C@@H](C)C(=O)N[C@@H](CCCNC(=N)N)C(=O)N[C@@H](CC(=O)O)C(=O)N[C@@H](Cc1ccccc1)C(=O)N[C@H](C(=O)N[C@@H](CC(N)=O)C(=O)N[C@@H](Cc1c[nH]c2ccccc12)C(=O)N[C@@H](CC(C)C)C(=O)N[C@H](C(=O)N[C@@H](CCC(N)=O)C(=O)N[C@H](C(=O)N[C@@H](CCCCN)C(N)=O)[C@@H](C)O)[C@@H](C)CC)[C@@H](C)CC)[C@@H](C)CC)[C@@H](C)O (some centres not stated) | – | Activity [1]: inactive |
| CCCCC(NC(=O)[C@H](CCC(=O)O)NC(=O)[C@H](CC(=O)O)NC(=O)[C@H](CO)NC(=O)[C@H](Cc1ccccc1)NC(=O)[C@H](CO)NC(=O)CNC(=O)[C@H](CC(=O)O)NC(=O)CNC(=O)[C@@H](N)Cc1cnc[nH]1)C(=O)N[C@H](Cc1ccccc1)C(=O)N[C@H](C(=O)N[C@H](C(=O)N[C@@H](CC(C)C)C(=O)N[C@@H](CC(=O)O)C(=O)N[C@@H](CC(C)C)C(=O)N[C@@H](CC(C)C)C(=O)N[C@@H](C)C(=O)N[C@@H](C)C(=O)N[C@@H](CCCNC(=N)N)C(=O)N[C@@H](CC(=O)O)C(=O)N[C@@H](Cc1ccccc1)C(=O)N[C@H](C(=O)N[C@@H](CC(N)=O)C(=O)N[C@@H](Cc1c[nH]c2ccccc12)C(=O)N[C@@H](CC(C)C)C(=O)N[C@H](C(=O)N[C@@H](CCC(N)=O)C(=O)N[C@H](C(=O)N[C@@H](CCCCN)C(N)=O)[C@@H](C)O)[C@@H](C)CC)[C@@H](C)CC)[C@@H](C)CC)[C@@H](C)O (some centres not stated) | > 12000 | – |
| CCCCC(NC(=O)[C@H](CCC(=O)O)NC(=O)[C@H](CC(=O)O)NC(=O)[C@H](CO)NC(=O)[C@H](Cc1ccccc1)NC(=O)[C@H](CO)NC(=O)CNC(=O)[C@H](CC(=O)O)NC(=O)CNC(=O)[C@@H](N)Cc1cnc[nH]1)C(=O)N[C@H](Cc1ccccc1)C(=O)N[C@H](C(=O)N[C@H](C(=O)N[C@@H](CC(C)C)C(=O)N[C@@H](CC(=O)O)C(=O)N[C@@H](CC(C)C)C(=O)N[C@@H](CC(C)C)C(=O)N[C@@H](C)C(=O)N[C@@H](C)C(=O)N[C@@H](CCCNC(=N)N)C(=O)N[C@@H](CC(=O)O)C(=O)N[C@@H](Cc1ccccc1)C(=O)N[C@H](C(=O)N[C@@H](CC(N)=O)C(=O)N[C@@H](Cc1c[nH]c2ccccc12)C(=O)N[C@@H](CC(C)C)C(=O)N[C@H](C(=O)N[C@@H](CCC(N)=O)C(=O)N[C@H](C(=O)N[C@@H](CCCCN)C(=O)N[C@H](C(=O)N[C@H](C(=O)N[C@@H](CC(=O)O)C(=O)O)[C@@H](C)O)[C@@H](C)CC)[C@@H](C)O)[C@@H](C)CC)[C@@H](C)CC)[C@@H](C)CC)[C@@H](C)O (some centres not stated) | > 33000 | – |
| CCCCC(NC(=O)[C@H](CCC(=O)O)NC(=O)[C@H](CC(=O)O)NC(=O)[C@H](CO)NC(=O)[C@H](Cc1ccccc1)NC(=O)[C@H](CO)NC(=O)CNC(=O)[C@H](CC(=O)O)NC(=O)CNC(=O)[C@@H](N)Cc1cnc[nH]1)C(=O)N[C@H](Cc1ccccc1)C(=O)N[C@H](C(=O)N[C@H](C(=O)N[C@@H](CC(C)C)C(=O)N[C@@H](CC(=O)O)C(=O)N[C@@H](CC(C)C)C(=O)N[C@@H](CC(C)C)C(=O)N[C@@H](C)C(=O)N[C@@H](C)C(=O)N[C@@H](CCCNC(=N)N)C(=O)N[C@@H](CC(=O)O)C(=O)N[C@@H](Cc1ccccc1)C(=O)N[C@H](C(=O)N[C@@H](CC(N)=O)C(=O)N[C@@H](Cc1c[nH]c2ccccc12)C(=O)N[C@@H](CC(C)C)C(=O)N[C@H](C(=O)N[C@@H](CCC(N)=O)C(=O)N[C@H](C(=O)N[C@@H](CCCCN)C(=O)N[C@H](C(=O)N[C@H](C(=O)N[C@@H](CC(=O)O)C(=O)NCCOCCOCCOCCOCCC(N)=O)[C@@H](C)O)[C@@H](C)CC)[C@@H](C)O)[C@@H](C)CC)[C@@H](C)CC)[C@@H](C)CC)[C@@H](C)O (some centres not stated) | > 33000 | – |
| CCCC[C@H](NC(=O)[C@H](CCC(=O)O)NC(=O)[C@H](CC(=O)O)NC(=O)[C@H](CO)NC(=O)[C@H](Cc1ccccc1)NC(=O)[C@H](CO)NC(=O)CNC(=O)[C@H](CC(=O)O)NC(=O)CNC(=O)[C@@H](N)Cc1cnc[nH]1)C(=O)N[C@@H](CC(N)=O)C(=O)N[C@H](C(=O)N[C@H](C(=O)N[C@@H](CC(C)C)C(=O)N[C@@H](CC(=O)O)C(=O)N[C@@H](Cc1ccc(Cl)cc1)C(=O)N[C@@H](CC(C)C)C(=O)N[C@@H](C)C(=O)N[C@@H](C)C(=O)N[C@@H](CCCNC(=N)N)C(=O)N[C@@H](CC(=O)O)C(=O)N[C@@H](Cc1ccccc1)C(=O)N[C@H](C(=O)N[C@@H](CC(N)=O)C(=O)N[C@@H](Cc1c[nH]c2ccccc12)C(=O)N[C@@H](CC(C)C)C(=O)N[C@H](C(=O)N[C@@H](CCC(N)=O)C(=O)N[C@H](C(=O)N[C@@H](CCCCN)C(N)=O)[C@@H](C)O)[C@@H](C)CC)[C@@H](C)CC)[C@@H](C)CC)[C@@H](C)O | – | clearance [2]: 0.67 mL/min/kg; EC50 [3]: 0.22 nM; EC50 [4]: > 1000 nM |
| CCCCC(NC(=O)[C@H](CCC(=O)O)NC(=O)[C@H](CC(=O)O)NC(=O)[C@H](CO)NC(=O)[C@H](Cc1ccccc1)NC(=O)[C@H](CO)NC(=O)CNC(=O)[C@H](CC(=O)O)NC(=O)CNC(=O)[C@@H](N)Cc1cnc[nH]1)C(=O)N[C@H](Cc1ccccc1)C(=O)N[C@H](C(=O)N[C@H](C(=O)N[C@@H](CC(C)C)C(=O)N[C@@H](CC(=O)O)C(=O)N[C@@H](CC(C)C)C(=O)N[C@@H](CC(C)C)C(=O)N[C@@H](C)C(=O)N[C@@H](C)C(=O)N[C@@H](CCCNC(=N)N)C(=O)N[C@@H](CC(=O)O)C(=O)N[C@@H](Cc1ccccc1)C(=O)N[C@H](C(=O)N[C@@H](CC(N)=O)C(=O)N[C@@H](Cc1c[nH]c2ccccc12)C(=O)N[C@@H](CC(C)C)C(=O)N[C@H](C(=O)N[C@@H](CCC(N)=O)C(=O)N[C@H](C(=O)N[C@@H](CCCCN)C(=O)N[C@H](C(=O)N[C@H](C(=O)N[C@@H](CC(=O)O)C(N)=O)[C@@H](C)O)[C@@H](C)CC)[C@@H](C)O)[C@@H](C)CC)[C@@H](C)CC)[C@@H](C)CC)[C@@H](C)O (some centres not stated) | > 33000 | – |
| CCCCC(NC(=O)[C@H](CCC(=O)O)NC(=O)[C@H](CC(=O)O)NC(=O)[C@H](CO)NC(=O)[C@H](Cc1ccccc1)NC(=O)[C@H](CO)NC(=O)CNC(=O)[C@H](CC(=O)O)NC(=O)CNC(=O)[C@@H](N)Cc1cnc[nH]1)C(=O)N[C@H](Cc1cccs1)C(=O)N[C@H](C(=O)N[C@H](C(=O)N[C@@H](CC(C)C)C(=O)N[C@@H](CC(=O)O)C(=O)N[C@@H](Cc1ccccc1)C(=O)N[C@@H](CC(C)C)C(=O)N[C@@H](C)C(=O)N[C@@H](C)C(=O)N[C@@H](CCCNC(=N)N)C(=O)N[C@@H](CC(=O)O)C(=O)N[C@@H](Cc1ccccc1)C(=O)N[C@H](C(=O)N[C@@H](CC(N)=O)C(=O)N[C@@H](Cc1c[nH]c2ccccc12)C(=O)N[C@@H](CC(C)C)C(=O)N[C@H](C(=O)N[C@@H](CCC(N)=O)C(=O)N[C@H](C(=O)N[C@@H](CCCCN)C(N)=O)[C@@H](C)O)[C@@H](C)CC)[C@@H](C)CC)[C@@H](C)CC)[C@@H](C)O (some centres not stated) | > 12000 | – |
| CCCC[C@H](NC(=O)[C@H](CCC(=O)O)NC(=O)[C@H](CC(=O)O)NC(=O)[C@H](CO)NC(=O)[C@H](Cc1ccccc1)NC(=O)[C@H](CO)NC(=O)CNC(=O)[C@H](CC(=O)O)NC(=O)CNC(=O)[C@@H](N)Cc1cnc[nH]1)C(=O)N[C@H](CC(C)C)C(=O)N[C@H](C(=O)N[C@H](C(=O)N[C@@H](CC(C)C)C(=O)N[C@@H](CC(=O)O)C(=O)N[C@@H](CC(N)=O)C(=O)N[C@@H](CC(C)C)C(=O)N[C@@H](C)C(=O)N[C@@H](C)C(=O)N[C@@H](CCCNC(=N)N)C(=O)N[C@@H](CC(=O)O)C(=O)N[C@@H](Cc1ccccc1)C(=O)N[C@H](C(=O)N[C@@H](CC(N)=O)C(=O)N[C@@H](Cc1c[nH]c2ccccc12)C(=O)N[C@@H](CC(C)C)C(=O)N[C@H](C(=O)N[C@@H](CCC(N)=O)C(=O)N[C@H](C(=O)N[C@@H](CCCCN)C(N)=O)[C@@H](C)O)[C@@H](C)CC)[C@@H](C)CC)[C@@H](C)CC)[C@@H](C)O | – | EC50 [3]: 0.31 nM; EC50 [4]: > 1000 nM |
| CCCCC(NC(=O)[C@H](CCC(=O)O)NC(=O)[C@H](CC(=O)O)NC(=O)[C@H](CO)NC(=O)[C@H](Cc1ccccc1)NC(=O)[C@H](CO)NC(=O)CNC(=O)[C@H](CC(=O)O)NC(=O)CNC(=O)[C@@H](N)Cc1cnc[nH]1)C(=O)N[C@H](Cc1ccccc1)C(=O)N[C@H](C(=O)N[C@H](C(=O)N[C@@H](CC(C)C)C(=O)N[C@@H](CC(=O)O)C(=O)N[C@@H](CC(C)C)C(=O)N[C@@H](CC(C)C)C(=O)N[C@@H](C)C(=O)N[C@@H](C)C(=O)N[C@@H](CCCNC(=N)N)C(=O)N[C@@H](CC(=O)O)C(=O)N[C@@H](Cc1ccccc1)C(=O)N[C@H](C(=O)N[C@@H](CC(N)=O)C(=O)N[C@@H](Cc1c[nH]c2ccccc12)C(=O)N[C@@H](CC(C)C)C(=O)N[C@H](C(=O)N[C@@H](CCC(N)=O)C(=O)N[C@H](C(=O)N[C@@H](CCCCN)C(=O)N[C@H](C(=O)N[C@H](C(=O)N[C@@H](CC(=O)O)C(=O)NCC)[C@@H](C)O)[C@@H](C)CC)[C@@H](C)O)[C@@H](C)CC)[C@@H](C)CC)[C@@H](C)CC)[C@@H](C)O (some centres not stated) | > 20000 | – |
